# ChEMBL document CHEMBL1157966, “Synthesis of salvinorin A analogues as opioid receptor probes” (J Nat Prod, 2006)
# Tests used:
# Mu-type opioid receptor = Mu-type opioid receptor (Homo sapiens, UniProt P35372); experiment: Displacement of [125]OXY from mu opioid receptor
# [1] = molecular target: Kappa-type opioid receptor (Homo sapiens, UniProt P41145); experiment: Displacement of [125]OXY from kappa opioid receptor
# [2] = molecular target: Delta-type opioid receptor (Homo sapiens, UniProt P41143); experiment: Displacement of [125]OXY from delta opioid receptor
# Sequence of Delta-type opioid receptor (P41143 whole entry): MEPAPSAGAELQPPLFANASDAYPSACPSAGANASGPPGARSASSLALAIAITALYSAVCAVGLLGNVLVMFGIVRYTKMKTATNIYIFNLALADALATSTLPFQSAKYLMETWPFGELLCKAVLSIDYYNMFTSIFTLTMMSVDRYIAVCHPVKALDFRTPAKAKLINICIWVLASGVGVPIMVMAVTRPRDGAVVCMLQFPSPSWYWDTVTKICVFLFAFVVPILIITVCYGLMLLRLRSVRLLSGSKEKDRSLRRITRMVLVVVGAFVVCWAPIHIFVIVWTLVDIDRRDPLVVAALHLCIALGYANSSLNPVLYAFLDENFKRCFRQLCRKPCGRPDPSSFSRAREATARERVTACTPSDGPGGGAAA
# [3] = Selectivity ratio of Ki for delta opioid receptor to kappa opioid receptor
# [4] = Selectivity ratio of Ki for mu opioid receptor to kappa opioid receptor
# Sequence of Kappa-type opioid receptor (P41145 whole entry): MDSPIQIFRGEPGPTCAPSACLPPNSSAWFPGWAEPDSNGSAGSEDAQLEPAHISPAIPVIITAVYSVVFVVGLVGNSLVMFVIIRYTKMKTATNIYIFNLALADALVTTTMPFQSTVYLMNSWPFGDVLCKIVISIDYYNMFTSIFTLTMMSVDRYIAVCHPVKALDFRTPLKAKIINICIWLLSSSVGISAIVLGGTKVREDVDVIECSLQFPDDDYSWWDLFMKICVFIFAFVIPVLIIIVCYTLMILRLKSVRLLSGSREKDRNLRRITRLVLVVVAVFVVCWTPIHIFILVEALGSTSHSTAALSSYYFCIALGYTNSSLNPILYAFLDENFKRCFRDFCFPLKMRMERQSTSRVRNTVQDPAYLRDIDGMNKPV
# Sequence of Mu-type opioid receptor (P35372 whole entry): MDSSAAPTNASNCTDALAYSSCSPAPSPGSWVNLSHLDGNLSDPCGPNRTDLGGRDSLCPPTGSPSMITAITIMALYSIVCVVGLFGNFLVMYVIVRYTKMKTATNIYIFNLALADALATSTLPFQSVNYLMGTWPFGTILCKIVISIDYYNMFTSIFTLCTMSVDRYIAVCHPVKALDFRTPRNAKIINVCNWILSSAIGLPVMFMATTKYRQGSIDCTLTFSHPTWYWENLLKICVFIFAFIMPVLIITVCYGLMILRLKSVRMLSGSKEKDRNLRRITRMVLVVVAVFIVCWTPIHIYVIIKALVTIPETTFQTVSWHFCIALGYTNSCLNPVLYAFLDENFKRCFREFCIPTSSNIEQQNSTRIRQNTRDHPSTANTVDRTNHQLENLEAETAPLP
Structure (SMILES),Ki (Mu-type opioid receptor),Ki [1],Ki [2],Ratio Ki [3],Ratio Ki [4]
COC(=O)[C@@H]1C[C@H](OC(=O)c2cccs2)C(=O)[C@H]2[C@@]1(C)CC[C@H]1C(=O)O[C@H](c3ccoc3)C[C@]21C,10 nM,260 nM,1380 nM,5,0.04
COC(=O)[C@@H]1C[C@H](OC(=O)CCc2ccccc2)C(=O)[C@H]2[C@@]1(C)CC[C@H]1C(=O)O[C@H](c3ccoc3)C[C@]21C,280 nM,180 nM,9330 nM,52,2
CCC(=O)O[C@H]1C[C@@H](C(=O)OC)[C@]2(C)CC[C@H]3C(=O)O[C@H](c4ccoc4)C[C@]3(C)[C@H]2C1=O,–,–,–,2730,> 560
COC(=O)[C@@H]1C[C@H](OC(=O)c2ccccc2)C(=O)[C@H]2[C@@]1(C)CC[C@H]1C(=O)O[C@H](c3ccoc3)C[C@]21C,–,–,–,12,0.13
"COC(=O)[C@@H]1C[C@H](OC(=O)c2ccc(Br)cc2)C(=O)[C@H]2[C@@]1(C)CCC1C(=O)O[C@H](c3ccoc3)C[C@@]12C (single isomer, unassigned)",10 nM,740 nM,1410 nM,2,0.01
"COC(=O)[C@@H]1C[C@H](OC(=O)c2cccc(Br)c2)C(=O)[C@H]2[C@@]1(C)CCC1C(=O)O[C@H](c3ccoc3)C[C@@]12C (single isomer, unassigned)",110 nM,70 nM,> 10000 nM,> 100,1.6
"CCCC(=O)O[C@H]1C[C@@H](C(=O)OC)[C@]2(C)CCC3C(=O)O[C@H](c4ccoc4)C[C@]3(C)[C@H]2C1=O (single isomer, unassigned)",520 nM,4 nM,4030 nM,1010,130
"COC(=O)[C@@H]1C[C@H](OC(=O)c2ccccc2Br)C(=O)[C@H]2[C@@]1(C)CCC1C(=O)O[C@H](c3ccoc3)C[C@@]12C (single isomer, unassigned)",110 nM,90 nM,> 10000 nM,> 100,1.2
"CCCCCC(=O)O[C@H]1C[C@@H](C(=O)OC)[C@]2(C)CCC3C(=O)O[C@H](c4ccoc4)C[C@]3(C)[C@H]2C1=O (single isomer, unassigned)",520 nM,70 nM,4240 nM,61,7
"CCCCC(=O)O[C@H]1C[C@@H](C(=O)OC)[C@]2(C)CCC3C(=O)O[C@H](c4ccoc4)C[C@]3(C)[C@H]2C1=O (single isomer, unassigned)",310 nM,15 nM,3970 nM,265,21
"COC(=O)[C@@H]1C[C@H](OC(=O)Cc2ccccc2)C(=O)[C@H]2[C@@]1(C)CCC1C(=O)O[C@H](c3ccoc3)C[C@@]12C (single isomer, unassigned)",1090 nM,290 nM,> 10000 nM,> 30,4
"COC(=O)[C@@H]1C[C@H](OS(=O)(=O)c2ccc(C)cc2)C(=O)[C@H]2[C@@]1(C)CCC1C(=O)O[C@H](c3ccoc3)C[C@@]12C (single isomer, unassigned)",220 nM,50 nM,3720 nM,74,4
"COC(=O)[C@@H]1C[C@H](OC(=O)CNC(=O)OC(C)(C)C)C(=O)[C@H]2[C@@]1(C)CCC1C(=O)O[C@H](c3ccoc3)C[C@@]12C (single isomer, unassigned)",5660 nM,90 nM,> 10000 nM,> 100,63
"COC(=O)[C@@H]1C[C@H](OS(=O)(=O)c2ccccc2)C(=O)[C@H]2[C@@]1(C)CCC1C(=O)O[C@H](c3ccoc3)C[C@@]12C (single isomer, unassigned)",> 10000 nM,60 nM,> 10000 nM,> 150,> 150
